{"source": "paper PMC12040169", "about": "(PLOS Biology, 2025)"}
{"test": "in vitro", "details": "human, hela cells, % viability", "units": {"viability at 28.5 h, 10 µM": "%"}}
{"compound": "O=C(CC1CCN(C(=O)c2ccc3nsnc3c2)CC1)N1CCN(c2ccccc2)CC1", "note": "[CBK286266]", "viability at 28.5 h, 10 µM": 85.9}
{"compound": "CC(C)Nc1nccnc1OCc1ccc(F)cc1", "note": "[CBK115644]", "viability at 28.5 h, 10 µM": 113}
{"compound": "Cn1cc(CCNC(=O)Nc2ccc(N3CCCCC3)nc2)cn1", "note": "[CBK305656]", "viability at 28.5 h, 10 µM": 95.2}
{"compound": "O=C(O)c1ccc2c(c1)C(=O)N(c1cccc(/C=C/C(=O)c3cccc(N4C(=O)c5ccc(C(=O)O)cc5C4=O)c3)c1)C2=O", "note": "[CBK261178]", "viability at 28.5 h, 10 µM": 89.8}
{"compound": "Cc1c(C(=O)O)sc(S(=O)(=O)N2CCN(C(=O)c3ccc(C(C)(C)C)cc3)CC2)c1C(=O)O", "note": "[CBK297119]", "viability at 28.5 h, 10 µM": 85.1}
{"compound": "Cc1ccc2c(c1)C(=O)CC1(CCN(C(=O)OC(C)(C)C)CC1)O2", "note": "[CBK283599]", "viability at 28.5 h, 10 µM": 98}
{"compound": "COc1ccc(S(=O)(=O)Nc2nnc(C(C)C)s2)cc1", "note": "[CBK045525]", "viability at 28.5 h, 10 µM": 91.3}
{"compound": "COc1ccccc1NC(=O)C(=O)N/N=C/c1ccc(C(=O)O)cc1", "note": "[CBK262148]", "viability at 28.5 h, 10 µM": 93.8}
{"compound": "COC(=O)c1ccc(Cl)cc1N(Cc1c(F)cccc1Cl)S(C)(=O)=O", "note": "[CBK021351]", "viability at 28.5 h, 10 µM": 85.3}
{"compound": "COc1ccccc1CCC(=O)NCc1cnc(SC)n1C", "note": "[CBK306926]", "viability at 28.5 h, 10 µM": 85.9}
{"compound": "O=C(Nc1cccc(Cl)c1)c1nnc(C(=O)NC2CCCCC2)s1", "note": "[CBK294406]", "viability at 28.5 h, 10 µM": 92.6}
{"compound": "Cc1c(C)n(C)c2nc(N3CCCC3)nc(N3CCCC3)c12", "note": "[CBK016683C]", "viability at 28.5 h, 10 µM": 90.1}
{"compound": "N=C(N)SCC1CNC(=N)S1", "note": "(centres unmarked) [CBK260991]", "viability at 28.5 h, 10 µM": 99.3}
{"compound": "CC(C)C(=O)Nc1cc2cccnc2nc1-c1cccc(C(F)(F)F)c1", "note": "[CBK073657]", "viability at 28.5 h, 10 µM": 93.7}
{"compound": "COCCN1C(=O)C2(CC(=O)N(C)C2=O)c2ccccc21", "note": "(centres unmarked) [CBK075387]", "viability at 28.5 h, 10 µM": 102}
{"compound": "C=CCNC(=O)N[C@H]1[C@H](O)[C@@H](N2CCCC2)[C@@H]2OC[C@H]1O2", "note": "[CBK288829]", "viability at 28.5 h, 10 µM": 92.6}
{"compound": "Cc1cccc(Nc2nc(N)nc(CC(=O)CSc3ccc(Cl)cc3)n2)c1", "note": "[CBK265204]", "viability at 28.5 h, 10 µM": 104}
{"compound": "CCCC(=O)Nc1ccc(OCCOC(C)(C)C)c(C(C)=O)c1", "note": "[CBK305691]", "viability at 28.5 h, 10 µM": 79.8}
{"compound": "CC(C)OC(=O)Cc1nc(CN2CCc3sccc3C2C)cs1", "note": "(centres unmarked) [CBK305284]", "viability at 28.5 h, 10 µM": 85.3}
{"compound": "O=c1/c(=C/c2ccc(N3CCOCC3)cc2)sc2nc3cc(Br)cnc3n12", "note": "[CBK262574]", "viability at 28.5 h, 10 µM": 86.9}
{"compound": "Cc1ccc([N+](=O)[O-])cc1S(=O)(=O)n1ccc2c(N3CCNCC3)nccc21", "note": "[CBK059068C]", "viability at 28.5 h, 10 µM": 96.5}
{"compound": "CC(=O)Nc1ccc(-c2csc(NC(=O)NS(=O)(=O)c3ccc(C)cc3)n2)cc1", "note": "[CBK297084]", "viability at 28.5 h, 10 µM": 107}
{"compound": "Cn1c(C(=O)O)ccc1S(=O)(=O)NCc1ccco1", "note": "[CBK113686]", "viability at 28.5 h, 10 µM": 105}
{"compound": "Cc1cc(OCCCC(=O)Nc2cccc([N+](=O)[O-])c2)cc(C)c1Cl", "note": "[CBK267978]", "viability at 28.5 h, 10 µM": 97.8}
{"compound": "Clc1cc(NCc2ccc(Cl)c(Cl)c2)n2nccc2n1", "note": "[CBK037043]", "viability at 28.5 h, 10 µM": 97.7}
{"compound": "CC1(C#N)CCCN(C(=O)NC2CCN(Cc3cccc(O)c3)CC2)C1", "note": "(centres unmarked) [CBK306787]", "viability at 28.5 h, 10 µM": 88.2}
{"compound": "c1ccc2oc(NC3=NCN(Cc4ccc5c(c4)OCO5)CN3)nc2c1", "note": "[CBK267964]", "viability at 28.5 h, 10 µM": 95.1}
{"compound": "CCOC(=O)Nc1ccc(S(=O)(=O)Nn2cnnc2)cc1", "note": "[CBK262138]", "viability at 28.5 h, 10 µM": 105}
{"compound": "O=C(CN1C(=O)N2CCCN=C2c2ccccc21)N1CCCC1", "note": "[CBK284419]", "viability at 28.5 h, 10 µM": 88.4}
{"compound": "Cc1cn([C@@H]2O[C@H](CO)[C@H](O)C2O)c(=O)nc1N", "note": "(some centres unmarked) [CBK201268]", "viability at 28.5 h, 10 µM": 105}
{"compound": "O=C(Oc1ccc(/C=N/Nc2nc(N3CCOCC3)nc(N3CCOCC3)n2)cc1)c1ccccc1", "note": "[CBK262064]", "viability at 28.5 h, 10 µM": 107}
{"compound": "N#Cc1c(NC(=O)C(=O)NCc2cccnc2)sc2c1CCCC2", "note": "[CBK269485]", "viability at 28.5 h, 10 µM": 91}
{"compound": "Cc1ncccc1COC(=O)N1c2ccc(F)cc2CCC1C", "note": "(centres unmarked) [CBK200139]", "viability at 28.5 h, 10 µM": 92.2}
{"compound": "O=C(O)c1sc2ncccc2c1NS(=O)(=O)c1cc(Cl)sc1Cl", "note": "[CBK050650]", "viability at 28.5 h, 10 µM": 78.2}
{"test": "in vitro", "details": "human, hela cells, % viability, bulk resorufin, single well", "units": {"viability at 28.5 h, 10 µM": "%"}}
{"compound": "O=P(Nc1ccc(Cl)c(Cl)c1)(Nc1ccc(Cl)c(Cl)c1)Oc1ccc(Cl)cc1", "note": "[CBK263487]", "viability at 28.5 h, 10 µM": 93.2}
